# Results reported in patent US20260335314A1, “CRYSTALLINE SALTS OR AMORPHOUS FORMS OF 2-((1H-PYRAZOL-3-YL)METHYL)-6-((6-AMINOPYRIDIN-2-YL)METHYL)-4-METHYL-4,6-DIHYDRO -5H-THIAZOLO[5',4':4,5]PYRROLO[2,3-D]PYRIDAZIN-5-ONE” (Agios Pharmaceuticals, Inc., priority 2023, published 2026).
# What was measured:
# pH solubility in buffers = assay type: physicochemical; details: for pH (24 h): pH of solution at 24 h
# Procedure: (§1) Solubility samples were prepared by weighing about 10 mg of each salt and adding 1 mL of media and vortexed briefly to obtain suspensions. […] For such instances, the solubility is calculated as greater than (>).
# (§2) The sample vials were capped and wrapped in aluminum foil, and placed on a shaker at 37° C. The shaker was set at about 100 rpm and vials were removed at specified time points. The vials were observed, and the supernatants were transferred to Eppendorf tubes and centrifuged at 3K for 10 minutes. The clear supernatants were transferred to HPLC vials. The samples were diluted prior to HPLC analysis using the dilution media by 2× or used without dilution. pH was measured of the 24 hour timepoint after centrifugation using a micro pH probe.
# (§3) • pH 2 buffer USP: Mixed 50 mL of 0.2M potassium chloride and 13 mL 0.2M HCl, diluted to 200 mL with water. • pH 4.5 buffer USP: 5.44 g of potassium dihydrogen phosphate was diluted to 1000 mL with water. • pH 6.8 buffer USP: Mixed 50 mL of 0.2M potassium phosphate and 22.4 mL 0.2M sodium hydroxide. Diluted with water to 200 mL. • SGF: 2.0109 g of NaCl was dissolved in water, added 7 mL of conc. HCl and diluted to 1 L. • FeSSIF: 4.0321 g of NaOH and 11.8726 g of NaCl were dissolved in water, added 8.65 mL of glacial acetic acid, adjusted the pH to 5.0 and diluted to 1 L. • FaSSIF: 0.4247 g of NaOH, 3.9548 g of sodium phosphate monobasic monohydrate and 6.1900 g of NaCl were dissolved in water, adjusted the pH to 6.5 and diluted to 1 L.
# At each time point, the solution was analyzed by HPLC and residue was vacuum dried and analyzed by XRPD. The pH of the solution was measured at 24 hours.
# [1] = Dynamic vapor sorption (moisture uptake); assay type: physicochemical; details: 25° C., from 5% to 95% relative humidity
# Procedure: Dynamic Vapor Sorption (DVS) was carried out using a TA Instruments Q5000 Dynamic Vapor Sorption analyzer. The instrument was calibrated with standard weights and a sodium bromide standard for humidity. Approximately 10-25 mg of sample was loaded into a metal-coated quartz pan for analysis. […] The movement from one step to the next occurred either after satisfying the equilibrium criterion of 0.01% weight change or, if the equilibrium criterion was not met, after one hour. The percent weight change values were calculated using Microsoft Excel®.
# [2] = Kinetic solubility in biorelevant media; assay type: physicochemical; details: for solubility at 10 min / solubility at 0.5 h / solubility at 1 h / solubility at 2 h / solubility at 4 h / solubility at 24 h: 37 °C; for solubility at 0.5 h: 30 min
# Procedure: as §1, §2
# as §3, with “adjusted the pH to 5.0 and diluted to 1 L. • FaSSIF:” left out
# Kinetic solubility was determined in biorelevant media. At each time point, the solution was analyzed by HPLC. The solid residue was analyzed by XRPD at selected time points. The pH of the solution was measured at 24 hours.
# [3] = Pharmacokinetics / absolute bioavailability in male Sprague Dawley rats; assay type: in vivo; details: oral gavage, 10 mg/kg
# Procedure: Twenty-one (21) male Sprague Dawley rats (purchased from Shanghai Laboratory Animal Center Co., Ltd., Shanghai, China) were randomized into 7 groups (3 animals per group). The animals fasted overnight, the forms of Compound 1 shown in Table 7 were administered by oral gavage, and the animals were fed 4 hours post-dose.
# Blood was serially collected from each animal at 0 (pre-dose), 0.083, 0.25, 0.5, 1, 2, 4, 8, and 24 h post-dose. For each collection, the animal was restrained manually, and approximately 150 μL of blood sample was collected via the tail vein into K2EDTA tubes. Plasma samples were stored at approximately −70° C. until analysis.
# To enable the calculation of absolute bioavailability, Compound 1 was formulated as a solution in 10% N-methyl-2-pyrrolidone, 10% Solutol HS 15, and 80% saline and administered at 1 mg/kg as intravenous (IV) bolus dose to a separate group of male Sprague Dawley rats, and blood samples were collected at similar timepoints to those shown above. Further, plasma samples were obtained from the collected samples and stored at approximately −70° C. until analysis.
# The concentration of Compound 1 in the plasma samples was determined by LC-MS/MS analysis.
# A 20 μL aliquot of each plasma sample was mixed with 200 μL of acetonitrile containing glipizide as an internal standard (40 ng/mL). The resulting mixture was vortexed at 1500 rpm for 2 min and centrifuged at 5800 rpm for 10 min. A 1 μL sample from the supernatant was injected into LC-MS/MS.
# LC-MS/MS analysis was conducted on a UPLC/MS-MS (API 6500+) system under the conditions outlined in Table 8
# The absolute bioavailability of each form of Compound 1 was determined by dividing the AUCinf of the form in question by the AUCinf obtained historical data by IV administration of Compound 1.
# [4] = ph 2 buffer (usp), pH 2, pH 2 (USP), 37 °C
# [5] = ph 4.5 buffer (usp), pH 4.5, pH 4.5 (USP), 37 °C
# [6] = ph 6.8 buffer (usp), pH 6.8, pH 6.8 (USP), 37 °C
# [7] = fassif, pH 5, FaSSIF pH 5.0 (so in the source)
# [8] = fessif, pH 6.5, FeSSIF pH 6.5 (so in the source)
smiles,measurement,setting,value
Cn1c2nc(Cc3cc[nH]n3)sc2c2cnn(Cc3cccc(N)n3)c(=O)c21.O=C(O)C(O)C(O)C(=O)O (racemic) [Form C],dissolution in 0.1N HCl,pH solubility in buffers; 0.1N HCl,dissolved instantly
same,pH (24 h),pH solubility in buffers; 0.1 N HCl,1.27
same,solubility,"pH solubility in buffers; 0.1 n hcl, 37 °C, dissolved instantly, estimated by adding 100 uL aliquots, read-out: solubility",> 10900 µg/mL
same,"pH solubility, overall",pH solubility in buffers; buffers pH 1 to pH 6.8,highest solubility
same,pH (24 h),pH solubility in buffers; pH 2 (USP),2.52
same,pH (24 h),pH solubility in buffers; pH 4.5 (USP),3.92
same,pH (24 h),pH solubility in buffers; pH 6.8 (USP),3.54
same,solubility at 2 h,pH solubility in buffers; [4],3810 µg/mL
same,solubility at 24 h,pH solubility in buffers; [4],2460 µg/mL
same,solubility at 2 h,pH solubility in buffers; [5],150 µg/mL
same,solubility at 24 h,pH solubility in buffers; [5],120 µg/mL
same,solubility at 2 h,pH solubility in buffers; [6],370 µg/mL
same,solubility at 24 h,pH solubility in buffers; [6],330 µg/mL
same,moisture uptake (DVS),[1],about 0.06%
same,pH (24 h),"[2]; FaSSIF pH 5.0 (so in the source), pH of solution at 24 h",4.60
same,pH (24 h),"[2]; FeSSIF pH 6.5 (so in the source), pH of solution at 24 h",3.35
same,pH (24 h),"[2]; SGF pH 1.2, pH of solution at 24 h",1.13
same,"kinetic solubility, overall",[2]; all media tested,highest solubility in all media tested
same,solubility at 10 min,[2]; [7],650 µg/mL
same,solubility at 0.5 h,[2]; [7],310 µg/mL
same,solubility at 1 h,[2]; [7],250 µg/mL
same,solubility at 2 h,[2]; [7],200 µg/mL
same,solubility at 4 h,[2]; [7],100 µg/mL
same,solubility at 24 h,[2]; [7],120 µg/mL
same,solubility at 10 min,[2]; [8],530 µg/mL
same,solubility at 0.5 h,[2]; [8],860 µg/mL
same,solubility at 1 h,[2]; [8],910 µg/mL
same,solubility at 2 h,[2]; [8],990 µg/mL
same,solubility at 4 h,[2]; [8],810 µg/mL
same,solubility at 24 h,[2]; [8],20 µg/mL
same,solubility,"[2]; sgf, pH 1.2, SGF pH 1.2, 37 °C, dissolved instantly, from total volume of media added, read-out: solubility",> 11100 µg/mL
same,dissolution in SGF,[2]; simulated gastric fluid (SGF),dissolved instantly
same,"absolute bioavailability, comparison with other forms",[3],higher than the measured bioavailability of the other forms of Compound 1
same,bioavailability,"[3]; rat, plasma, po, vs historical IV AUCinf, read-out: Absolute % F",91%
same,AUC(0-inf),"[3]; rat, plasma, po, fasted overnight",14200 ng·h/mL
